Experimental findings from ChEMBL document CHEMBL1821667, “New pyrazolyl and thienyl aminohydantoins as potent BACE1 inhibitors: exploring the S2' region” (Bioorg Med Chem Lett, 2011) are described below.

One may read the pIC50 as the IC50 on a negative log10 scale, so that one unit is a factor of ten. A higher pIC50 goes with a small IC50. For orientation: inhibition means the change of the read-out against control, counted positive when it falls. A low value points to little suppression. As usually defined, the pEC50 is the negative decadic logarithm of the EC50, by convention in mol/L.

In series [1] the target is T1, Beta-secretase 1 (Homo sapiens, UniProt P56817). In words: Inhibition of BACE1 by FRET assay.
T1 sequence (P56817 whole entry): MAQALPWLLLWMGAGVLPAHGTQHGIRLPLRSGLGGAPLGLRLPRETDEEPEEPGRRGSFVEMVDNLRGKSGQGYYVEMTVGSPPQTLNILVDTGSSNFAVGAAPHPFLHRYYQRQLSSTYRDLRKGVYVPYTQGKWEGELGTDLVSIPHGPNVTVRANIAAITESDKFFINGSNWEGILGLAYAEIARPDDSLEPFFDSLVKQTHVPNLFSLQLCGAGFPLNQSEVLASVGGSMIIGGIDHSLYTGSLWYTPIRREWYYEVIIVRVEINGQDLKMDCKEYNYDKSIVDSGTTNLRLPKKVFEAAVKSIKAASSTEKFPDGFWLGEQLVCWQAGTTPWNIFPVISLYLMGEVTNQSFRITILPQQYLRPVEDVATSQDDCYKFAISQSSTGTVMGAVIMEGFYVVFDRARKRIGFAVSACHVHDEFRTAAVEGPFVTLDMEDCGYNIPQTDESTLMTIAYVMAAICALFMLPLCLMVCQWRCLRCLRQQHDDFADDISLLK
A further series has as its target T2, Beta-secretase 2 (Homo sapiens, UniProt Q9Y5Z0).
T2 sequence (Q9Y5Z0 whole entry): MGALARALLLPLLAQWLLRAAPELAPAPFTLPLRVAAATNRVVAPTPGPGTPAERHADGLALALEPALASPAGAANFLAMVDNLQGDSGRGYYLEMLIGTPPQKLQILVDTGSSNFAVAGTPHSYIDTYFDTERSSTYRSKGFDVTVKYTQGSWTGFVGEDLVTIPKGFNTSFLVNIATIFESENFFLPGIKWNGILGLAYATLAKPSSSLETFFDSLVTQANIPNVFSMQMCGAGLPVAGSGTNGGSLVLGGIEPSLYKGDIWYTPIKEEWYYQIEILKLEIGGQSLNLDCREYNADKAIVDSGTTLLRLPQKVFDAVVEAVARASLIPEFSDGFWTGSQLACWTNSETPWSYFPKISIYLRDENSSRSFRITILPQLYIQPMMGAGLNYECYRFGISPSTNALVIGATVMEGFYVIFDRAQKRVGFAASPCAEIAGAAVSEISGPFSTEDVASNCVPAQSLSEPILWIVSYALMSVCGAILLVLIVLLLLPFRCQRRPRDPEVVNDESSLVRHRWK
In words: Inhibition of BACE2 by FRET assay.

In series [2] the target is T3, Cathepsin D (Homo sapiens, UniProt P07339). In words: Inhibition of cathepsin D at 100 uM by FRET assay.
T3 sequence (P07339 65-162 limits assumed): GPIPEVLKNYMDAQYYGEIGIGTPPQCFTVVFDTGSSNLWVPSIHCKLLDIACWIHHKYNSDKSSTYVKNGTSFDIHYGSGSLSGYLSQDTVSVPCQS
T3 sequence (P07339 169-412 limits assumed): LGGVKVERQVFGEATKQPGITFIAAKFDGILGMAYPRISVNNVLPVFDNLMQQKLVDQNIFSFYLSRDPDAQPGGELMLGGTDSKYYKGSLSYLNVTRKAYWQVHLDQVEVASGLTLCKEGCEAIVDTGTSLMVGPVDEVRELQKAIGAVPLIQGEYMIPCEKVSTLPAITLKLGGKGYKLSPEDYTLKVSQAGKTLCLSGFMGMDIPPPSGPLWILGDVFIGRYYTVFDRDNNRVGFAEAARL
The target of series [3] is T1, Beta-secretase 1. In words: Inhibition of BACE1 expressed in CHO cells expressing wild type human APP assessed as inhibition of amyloid beta-40 or 42 production by ELISA assay. It is filed as cell-based.
Series [4] deals with T3, Cathepsin D. In words: Inhibition of cathepsin D by FRET assay.
Series [5] is described as follows: Ratio of AUC in brain to plasma. It is filed as ADME, cell-free. The note with it: brain and plasma; read-out: Ratio AUC.
Series [6] has as its target T1, Beta-secretase 1. In words: Inhibition of BACE1 at 2.5 uM by FRET assay.

pEC50, pIC50: −log10 of the molar value.

As for `CCn1cc([C@@]2(c3cccc(-c4cccnc4F)c3)N=C(N)N(C)C2=O)cn1`, the pIC50 on Beta-secretase 1 [1] was 5.71; at Beta-secretase 2, 5.13. In addition, the inhibition at Cathepsin D [2] worked out at 27%. For the same compound, the pEC50 at Beta-secretase 1 [3] is < 5.60.

As to `CCC(=O)c1cc(C2(c3cccc(-c4cncnc4)c3)N=C(N)N(C)C2=O)cs1` (racemic), the pIC50 is 7.82 against Beta-secretase 1 [1], 7.15 against Beta-secretase 2 and 4.88 against Cathepsin D [4]. Besides, the Kp in series [5] worked out at 0.1. For the same compound, the pEC50 on Beta-secretase 1 [3] is 7.15.

On to `CCc1cc(C2(c3cccc(-c4cncnc4)c3)N=C(N)N(C)C2=O)cs1` (racemic), for which the pIC50 against Beta-secretase 1 [1] was 7.10; at Beta-secretase 2 it was 6.25; against Cathepsin D [4], 4.62. Moreover, the Kp in series [5] is 0.1. Further, the pEC50 at Beta-secretase 1 [3] is 6.43.

Consider `CCC(=O)c1cc([C@@]2(c3cccc(-c4cccnc4F)c3)N=C(N)N(C)C2=O)cs1`, for which the inhibition at Beta-secretase 1 [6] is 47%. Moreover, the pIC50 at Beta-secretase 2 was 5.26; against Cathepsin D [4] it was 4.11. In series [5], the Kp was found to be 0.1. In addition, the pEC50 at Beta-secretase 1 [3] was 5.54.

Consider `CN1C(=O)C(c2cccc(-c3cncnc3)c2)(c2csc(Cl)c2)N=C1N` (racemic), for which the pIC50 on Beta-secretase 1 [1] was 7.10; at Beta-secretase 2, 6.21; against Cathepsin D [4], 4.52. In addition, the Kp in series [5] came out at 0.1. In addition, the pEC50 at Beta-secretase 1 [3] is 6.47.

For the compound `CN1C(=O)C(c2ccsc2)(c2ccc(F)c(-c3cccnc3F)c2)N=C1N` (racemic), the pIC50 against Beta-secretase 1 [1] is 7.52; on Beta-secretase 2, 6.39; against Cathepsin D [4] it was 5.66. In series [5], the Kp worked out at 0.1. The pEC50 on Beta-secretase 1 [3] was 6.70.
